Data on 89 molecules can be found in a melting point compilation (Tetko et al.; mined from patent text by program, amines drawn as free bases though some values may be those of a salt).

As for `Nc1cccc(-c2ccc(CCN3CCN(c4cccc(C(F)(F)F)c4)CC3)cc2)n1`, the melting point lay within 189 to 191 °C.
The result for `Cc1sc(Cc2ccc(Br)cc2)c(C(=O)c2ccc(OS(=O)(=O)c3cnn(C)c3)c(C3CCCC3)c2)c1C` reads 55 to 60 °C.
In turn, `COc1cccc(-c2nc(N)nc(Nc3cccc(Br)c3)n2)c1` displayed a melting point of 142 °C.
As for `N#CCC1NC(=O)C(Cc2ccccc2)NC1=O` (centres undefined), the melting point lay in the range of 255 to 256 °C.
In the case of `CC(Nc1ncnc2c1ncn2C1OC(CO)C(O)C1O)c1ccccc1` (centres undefined), the melting point fell in the range of 165 to 167 °C.
As to `O=C1CC(c2cccc(-n3ccnc3)c2)=Nc2ccc(C#Cc3ccc(F)cc3)cc2N1`, the melting point fell in the range of 216 to 218 °C.
The molecule `COC(=O)COc1nc(N)nc(-c2ccccc2)c1-c1ccc(=O)n(C(C)C)n1` came in with a melting point of 150 to 152 °C.
On to `COc1ccc(Cl)cc1C1=NCCO1`, for which the melting point lay within 100 to 101 °C.
Next, `CC(C)CN1C(=O)C2CC(c3ccc([N+](=O)[O-])cc3)(C2)C1=O`: 136 to 137 °C.
For the molecule `COc1cc(C=CC(C)=O)ccc1OCC1CO1` (centres undefined), the melting point fell in the range of 123 to 124 °C.
In turn, `O=c1oc2ccccc2c(O)c1C1CC(c2ccc(-c3ccc(OCc4ccc(Br)cc4)cc3)cc2)Cc2ccccc21` (centres undefined) had a melting point of 240 °C.
Regarding `Cc1ccc(NC(=O)c2cccc(N(C)C)c2)cc1Nc1ncc(-c2cccnc2)o1`, the melting point was 228 °C.
Next, `Cc1ccc(S(=O)(=O)N2CCC[C@H]2C(=O)N[C@@H](Cc2ccccc2)C(=O)NOCc2ccccc2)cc1`: 127 to 130 °C; `CCCc1ccc(C(=O)Nc2ccc(C(C)=O)cc2)cc1`: 174 to 176 °C.
Regarding `Cc1ccc(-c2cc(C(O)C#Cc3ccc(C(=O)O)cc3)cc3c2C(C)(C)CCC3(C)C)cc1` (centres undefined), the melting point was determined as 180 °C.
In turn, `CS(=O)(=O)c1cccc(-c2ccccc2N)c1` yielded a melting point of 114 to 115 °C.
The result for `CCS(=O)(=O)C(=CNc1ccc(Cl)cc1)S(=O)(=O)CC` reads 173 to 175 °C.
`CCOC(=O)CNc1nc(C)c(C(=O)OCC)c(NC(C)CC)c1[N+](=O)[O-]` (centres undefined) gave a melting point of 43 to 45 °C.
`CCCCCn1c2ccccc2c2cc(C(=O)NCC(C)(C)C)ncc21` showed a melting point of 91 to 92 °C.
`CN(C)C=C(C#N)C(=O)c1ccc(C(C)(CN)C(=O)OC(C)(C)C)cc1` (centres undefined) showed a melting point of 160 to 162 °C.
`O=S(=O)(c1ccccc1)N1CCCCC1CSc1ccc(Cl)cc1` (centres undefined): the melting point lay in the range of 78.5 to 80 °C.
Molecule `COc1cc(/C=C/C(=O)/C=C/c2cc(OC)c(OCCN=[N+]=[N-])c(OC)c2)cc(OC)c1OCCN=[N+]=[N-]` displayed a melting point of 107 to 109 °C.
Take `CCOc1c(OC)cc(C(=O)OC)c(-c2c(C(=O)OC)cc(OC)c3c2OCO3)c1OCC`: the melting point lay in the range of 107 to 108 °C.
For the molecule `CC(C)NCC(O)COc1ccc(NC(=O)N(C)C)cc1Cl` (centres undefined), the melting point is 130 °C.
For `CCCCCCCCCCCCCC(=O)c1cc(O)c(C)cc1O`, the melting point turned out to be 83 °C.
The molecule `COC(=O)Cc1c(C)n(-c2ccnc3ccccc23)c2ccc(OC)cc12` showed a melting point of 103 to 105 °C.
Turning to `CCCC(=O)Nc1ccc(-c2cc(C(C)(C)C)c(O)c(C(C)(C)C)c2)cc1`, the melting point fell in the range of 180 to 181 °C.
Next, `c1ccc2c(c1)OCc1c(-c3nc(C4CC4)no3)ncn1-2`: 169 to 173 °C; `COCCOc1ccc(N)c([N+](=O)[O-])c1`: 89 to 90 °C; `O=S(=O)(Oc1cc(I)c(I)cc1OS(=O)(=O)C(F)(F)F)C(F)(F)F`: 46.5 to 47.7 °C.
In the case of `COc1ccc(C2=NN(C3CCCCCC3)C(=O)[C@H]3CC=CC[C@@H]23)c2c1OC(C)(C)C2` (relative stereo), the melting point is 114 to 115 °C.
Consider `CC(C)OCCNC(=O)c1cccc(-c2cccc3cc(Cc4cc(F)cc(Cl)c4)sc23)c1`, for which the melting point fell in the range of 84 to 85 °C.
Regarding `Cc1cc(C(=O)O)c(NC(=O)C(C)C)s1`, the melting point was 160 to 162 °C.
On to `Cc1cc(C2OCCO2)ncc1[N+](=O)[O-]`, for which the melting point was in the range of 77 to 79 °C.
Molecule `N#CCOC(=O)c1ccc(CNC(=O)CCCCCN2C(=O)C=CC2=O)cc1O` gave a melting point of 141 to 144 °C.
Take `NC(c1ncn(N)n1)C1CCN(CC2COc3ccccc3O2)CC1` (centres undefined): the melting point was 157 to 158 °C.
As to `Cc1ccc(S(=O)(=O)NC[C@H](C)N)cc1`, the melting point was 82 to 86 °C.
For `COc1ccccc1SC1CC(=O)N1` (centres undefined), the melting point was 103 to 105 °C.
Next, `Clc1cnc(Br)c(Br)c1`: 39.5 to 43 °C; `CCS(=O)(=O)N(C)C1CCCOc2ccccc21` (centres undefined): 122 to 124 °C.
For the molecule `O=C(O)[C@H](Cc1ccc(F)cc1)[C@@H](O)c1ccc(C(F)(F)F)cc1` (racemic), the melting point lay within 120 to 121 °C.
With `CCOC(=O)c1csc(Nc2ccc(Br)cn2)n1`, the melting point lay in the range of 300 to 301 °C.
As for `CCOc1noc2c1CN(C(=O)OC)CC2`, the melting point is 95 to 98 °C.
Regarding `Cc1c(-c2ccccc2)oc2c(C=CC(=O)O)cccc2c1=O`, the melting point lay within 226 to 229 °C.
The result for `CN1C(=O)C2(COc3cc4c(cc32)OCCO4)c2c(NC(=O)NC3CCCC3)cccc21` (centres undefined) reads 133 to 135 °C; that for `OC[C@H]1OC[C@@H](n2cnc3cc(Cl)c(Cl)cc32)[C@H](O)[C@@H]1O`, 160 to 162 °C; that for `COc1ccccc1N1CCN(CCCOC(=O)Cc2csc(NC(=O)c3ccc(F)cc3)n2)CC1`, 100 °C.
The molecule `O=C1Nc2ccccc2N(C(=O)N2CCOC(CCN3CCCCC3)C2)c2ncccc21` (centres undefined) showed a melting point of 136 to 138 °C.
As to `NC(c1ccccc1)c1ccc(C(N)c2ccc(C(N)c3ccccc3)cc2)cc1` (centres undefined), the melting point was 182 to 185 °C.
For `Cc1ccc(S(=O)(=O)OC[C@H]2CC[C@H](C#N)CC2)cc1`, the melting point was in the range of 84 to 85 °C.
As to `CS(=O)(=O)c1ccc(-c2ccccc2N2CCCCC2)cc1`, the melting point is 140 °C.
On to `COc1cc2c(cc1OC)C(=O)C(=O)N(CCCN(C)CCCSc1ccccc1)CC2`, for which the melting point lay within 77 to 79 °C.
Next, `O=C(NC(NC(=S)Nc1cccnc1)C(F)(F)F)c1ccc(Cl)cc1` (centres undefined): 147 to 149 °C; `CC(NC(=O)NCCCCC1CCSS1)C(=O)NS(N)(=O)=O` (centres undefined): 156 to 157 °C.
As to `Cc1ccc(-c2cc(N3CCCCC3)c(C#N)c3c2-c2ccccc2C3=O)cc1`, the melting point was 230 to 232 °C.
Turning to `Fc1ccc(CN2CCC(Nc3ccc(C(F)(F)F)nn3)CC2)cc1F`, the melting point lay in the range of 168 to 169 °C.
Next, `COC(=O)c1[nH]c2c(C)ccc(C)c2c1Br`: 173 to 174 °C.
Next, `Cc1cc(-n2cncn2)ccc1[N+](=O)[O-]`: 116 to 117 °C; `CCOC(=O)Cc1nn(Cc2nc3cc(Br)ccc3s2)c(=O)c2ccccc12`: 160 to 161 °C.
Regarding `CCCCCNC(CCCCC)=C1C(=O)ON=C1C`, the melting point amounted to 36 °C.
`Cc1c(-c2cccs2)nn2cc[nH]c12`: the melting point fell in the range of 205 to 208 °C.
In the case of `COc1cccc(C23CCN(Cc4ccccc4)C(CC(=O)C2)C3)c1` (centres undefined), the melting point was in the range of 108 to 109 °C.
In the case of `CC(=O)N1CCC(Oc2c(F)c(F)c(F)c(F)c2F)(c2ccccc2)CC1`, the melting point was in the range of 115 to 120 °C.
The result for `O=C(Nc1ccc(-n2nc(C(F)(F)F)cc2C(F)(F)F)cc1)c1sccc1Br` reads 139 to 140 °C.
As for `COc1ccc(C)cc1NC(=O)Nc1ccc2c(c1)C=CN(C(=O)Nc1c(C)cccc1Cl)C2`, the melting point was 216 to 218 °C.
Molecule `O=c1c2ccccc2nc(-c2cc(-c3ccccc3)c(N3CCOCC3)s2)n1-c1ccc(Cl)cc1` came in with a melting point of 223 to 224 °C.
In the case of `CCOCc1nc2c(N)nc3ccccc3c2n1C[C@H]1COC(C)(C)O1`, the melting point is 130 to 131 °C.
In turn, `CCOCCn1cc(C2CCN(CCOc3ccccc3C(=O)O)CC2)c2cccnc21` showed a melting point of 137 to 140 °C.
With `COc1cccc(C(F)(F)F)c1C(=O)O`, the melting point lay within 129 to 130 °C.
In turn, `CCOC(=O)C1=C(C)NC(C)=C(C(=O)OCC)C1c1ccccc1C=Cc1ccc(Cl)cc1` displayed a melting point of 178 to 181 °C.
In turn, `Fc1ccc(-c2cc3ncnc(Nc4ccc5[nH]ccc5c4)c3s2)cc1` gave a melting point of 193 to 205 °C.
The result for `CC(C)N1CN(C(=O)c2c(F)cccc2F)C(=O)N(c2ccc(Cl)cc2)C1` reads 130 to 131 °C.
Turning to `CNC(=O)c1ccc(F)c(Cl)c1`, the melting point is 108 to 110 °C.
`CC(C)n1cc(C#N)c(-c2ccc([N+](=O)[O-])o2)n1`: the melting point lay in the range of 181 to 182 °C.
Next, `CN(C)CCc1cccc(OCCNc2nc(N)nn2C)c1`: 72 °C; `CS(=O)(=O)N(CCc1ccccc1)CC(O)(Cn1cncn1)c1ccc(Cl)cc1Cl` (centres undefined): 138 to 140 °C.
Next, `CCCCCCCCP(=O)(O)CCCCCCCC`: 84 to 86 °C.
For `Cc1ccc(CC2CCN(CCS(=O)c3ccc4[nH]c(=O)oc4c3)CC2)cc1` (centres undefined), the melting point was in the range of 177 to 179 °C.
`Nc1ccc(SC2=CCCCC2)cc1[N+](=O)[O-]` had a melting point of 93 to 95 °C.
Next, `CC(=O)N1CCC(OC(=O)c2ccccc2)(c2nccc3ccccc23)CC1`: 186 to 189 °C; `CCN(CC)c1ccc(-n2c(CC(=O)O)c(C(=O)O)c3cc(Oc4ccc(C(F)(F)F)cc4)ccc32)cc1`: 234 to 236 °C; `CC(C)(C)c1nc(-c2n[nH]c(=O)o2)nc(C(C)(C)C)c1O`: 230 to 232 °C.
The result for `Cc1ccccc1C(=O)NC1CCC(=O)N2CCCC(C(=O)NC3CC(=O)OC3OCc3ccccc3)N2C1=O` (centres undefined) reads 106 to 110 °C.
As to `O=CNc1cccc2ccccc12`, the melting point is 134 to 135 °C.
The molecule `CCNC(=Nc1ccccc1N1CCOCC1)NCC` registered a melting point of 101 to 102 °C.
`COc1ccc2c(C3=CCN(C[C@H](O)COc4cccc5[nH]ccc45)CC3)c[nH]c2c1` had a melting point of 155 to 160 °C.
As to `COC(=O)COc1c(CCC(C)C)c(OC)cc(OC)c1C(=O)CCc1ccc(O)c(OC)c1`, the melting point was in the range of 89 to 90 °C.
For the molecule `O[C@H]1C[C@H]2CN(C3=Nc4cc(Cl)ccc4Sc4ccccc43)CCN2C1`, the melting point was 58 to 60 °C.
For the molecule `CCOC(=O)[C@@H](O)[C@@H]1OC(=O)c2ccc(OC)cc21`, the melting point lay within 121 to 122 °C.

Usually melting point stands for the temperature of the solid-liquid transition.
